The subject of the assay is Plasmodium falciparum. In words: GSK_TCMDC: Inhibition of Plasmodium falciparum 3D7 in whole erythrocytes, using parasite LDH activity as an index of growth. The format is functional, organism-based. Particulars: Plasmodium falciparum, 3D7.
For `Cc1nc(O)c2c(ccc3ccc(CNc4ccc(C(=O)N[C@@H](CCC(=O)O)C(=O)O)cc4)cc32)n1`, the XC50 came out at 177 nM.

As to `CCN(CC)CCN(Cc1ccc(-c2ccc(C(F)(F)F)s2)cc1)C(=O)Cn1c(CCc2cccc(F)c2F)nc(=O)c2ccccc21`, the XC50 came out at 994 nM.

Compound `CCN(CC)CCN(Cc1ccc(-c2ccc(C(F)(F)F)cc2)cc1)C(=O)Cn1c(CCc2ccc(F)c(C#N)c2)nc(=O)c2ccccc21` gave an XC50 of 769 nM.

With `CS(=O)(=O)CCNCc1cc(-c2cc3ncnc(Nc4ccc(OCc5cccc(F)c5)c(Cl)c4)c3s2)cs1`, the XC50 amounted to 326 nM.

On to `O=[N+]([O-])c1ccc(C=NNc2nc(Nc3ccccc3)nc(Nc3ccccc3)n2)o1`, for which the XC50 stood at 837 nM.

For the compound `O=S(=O)(c1cc2ccccc2s1)N(CCC(O)(C(F)(F)F)C(F)(F)F)Cc1cccc(O)c1`, the XC50 amounted to 751 nM.

In turn, `CCCN(CCC)C(=O)c1cc(C(=O)N[C@@H](Cc2ccccc2)[C@H](O)CNCc2cccc(C(F)(F)F)c2)cc(N2CCCCS2(=O)=O)c1` showed an XC50 of 876 nM.

`CC(C)C(C(=O)Nc1ccc(S(=O)(=O)N(C)C)cc1)c1ccc(Cl)cc1` (centres undefined) yielded an XC50 of 937 nM.

In turn, `O=C(Nc1cc(C(F)(F)F)cc(C(F)(F)F)c1)Nc1ccc(Cl)c(Cl)c1` came in with an XC50 of 240 nM.

The compound `COc1ccc(OC)c(C(O)CNC(C)C)c1` (centres undefined) displayed an XC50 of 56 nM.

Compound `Cc1c(C2CCN(CCCCNC(=O)c3ccc(-c4ccc(C#N)cc4)cc3)CC2)c2ccccc2n1CCO` returned an XC50 of 995 nM.

`Nc1ncc(OC2CCCCC2)c(N)n1`: the XC50 came out at 1070 nM.

On to `COCCNCc1cccc(-c2ccccc2CN(C(=O)Nc2ccccc2)C2CCN(Cc3ccccc3)CC2)c1`, for which the XC50 is 914 nM.

In turn, `COc1cccc(C2C(C(=O)Nc3ccccc3)=C(C)N=c3sc(=Cc4ccc(O)cc4)c(=O)n32)c1` (centres undefined) registered an XC50 of 579 nM.

Compound `CC(=O)c1c(Nc2c(C)cc(C)cc2C)oc(C)cc1=O` returned an XC50 of 481 nM.

`CC(C)(C)c1ccc(CNC(=O)c2ccc(-c3nc4ccc(Cl)cc4[nH]3)cc2)cc1` showed an XC50 of 819 nM.

`Cc1c(S(=O)(=O)Nc2cccc(CCN3CCCCC3CCN3CCCC3)c2)sc2ccc(Cl)cc12` (centres undefined) came in with an XC50 of 925 nM.

`Cn1nccc1C(=O)NCCNCc1cccc(-c2cccc(-c3nc4cc(F)ccc4[nH]3)c2)c1` yielded an XC50 of 261 nM.

For `CC(=O)Nc1ncc(C(=O)Nc2cccc(-c3cccc(-c4nc5cc(C(F)(F)F)ccc5[nH]4)c3)c2)s1`, the XC50 stood at 185 nM.

For the compound `O=C(CCc1c[nH]cn1)Nc1cccc(-c2ccc(-c3nc4cc(F)ccc4[nH]3)cc2)c1`, the XC50 worked out at 244 nM.

Compound `CN(C)Cc1ccc2cc(NC(=O)c3ccc(-c4ccc(Cl)cc4)cc3)ccc2n1` displayed an XC50 of 849 nM.

Take `CN(C)Cc1ccc(-c2ccc3c(Nc4ccc(Oc5ccccc5)cc4)ccnc3c2)o1`: the XC50 turned out to be 788 nM.

With `Nc1nc2c(ncn2COC(COCc2ccccc2)COCc2ccccc2)c(=O)[nH]1.Nc1nc2ncn(COC(COCc3ccccc3)COCc3ccccc3)c2c(=O)[nH]1`, the XC50 came out at 714 nM.

In turn, `CN1CCC(Oc2ccc(CN3CC[C@H](NC(=O)c4ccc(Cl)c(Cl)c4)C3)cc2Cl)C1` (some centres undefined) gave an XC50 of 882 nM.

Take `CC1(C)N=C(N)N=C(Nc2ccc(F)c(F)c2)N1`: the XC50 worked out at 52.5 nM.

`COc1ccc(CNc2ccc3nc(N)nc(N)c3c2)cc1` registered an XC50 of 172 nM.

As to `COc1ccc(C(=O)NC(Nc2ccc([N+](=O)[O-])cc2)C(Cl)(Cl)Cl)cc1` (centres undefined), the XC50 was determined as 1080 nM.

Consider `Cc1nc2nc(N)nc(N)c2c(C)c1Cc1ccccc1I`, for which the XC50 worked out at 351 nM.

`O=C(Cc1c[nH]cn1)Nc1cccc(-c2ccc(-c3nc4cc(F)ccc4[nH]3)s2)c1` showed an XC50 of 660 nM.

The compound `CCOc1cc(Cc2cnc(N)nc2N)cc(OCC)c1OCCCCC(=O)OC` displayed an XC50 of 44.8 nM.

In the case of `COc1ccc2nccc([C@@H](O)CN3CCC(NC(=O)C(c4cccs4)N4CCN(c5ccc(F)cc5)CC4)CC3)c2c1` (some centres undefined), the XC50 is 817 nM.

Compound `COc1ccc2ncc(F)c(CCN3C[C@H](CNCc4cc(F)c5c(c4)NC(=O)CO5)[C@H](O)C3)c2n1` came in with an XC50 of 667 nM.

Compound `COc1ccc(O)c(Cc2cnc3nc(N)nc(N)c3c2C)c1` had an XC50 of 36.8 nM.

As for `CC(=O)Nc1ccc2[nH]cc(C3CCN(CC4CCC(NC(=O)/C=C/c5ccc(Cl)c(Cl)c5)CC4)CC3)c2n1` (centres undefined), the XC50 was 263 nM.

The compound `COc1ccc(CNC(=O)Nc2cc3cc(-c4ccc(CN(C)C)cc4)ccc3n3c(C)nnc23)cc1` gave an XC50 of 852 nM.

`COc1ccc2nccc(N(C)CC3(O)CCN(CC(O)c4ccc5c(c4)NC(=O)CS5)CC3)c2n1` (centres undefined): the XC50 was 590 nM.

Take `COc1ccc(-c2ccc(NC(=O)c3cccc(C#N)c3)cc2)cc1CN1CCCN(C)CC1`: the XC50 was determined as 293 nM.

In turn, `CCOC(=O)CN(c1ccc(Br)cc1OCCOc1cc(Br)ccc1N(CC(=O)OCC)C(C)C(=O)OCC)C(C)C(=O)OCC` (centres undefined) yielded an XC50 of 806 nM.

`Cc1ccc(-c2cc(C(=O)Nc3ccc(S(=O)(=O)N4CCOCC4)cc3)[nH]n2)c(O)c1C` returned an XC50 of 920 nM.

`OCCOCCNCc1cccc(C#Cc2cc3ncnc(Nc4ccc(OCc5cccc(F)c5)c(Cl)c4)c3s2)n1` yielded an XC50 of 781 nM.

In the case of `Cc1cccc2nc(-c3cccc(-c4cccc(CNCC5CCCO5)c4)c3)[nH]c12` (centres undefined), the XC50 is 602 nM.

Turning to `CCCCCc1cc(OC(=O)CCCN(CC)CC)c2c(c1)OC(C)(C)C=C2C1=CCN(Cc2ccc3ccccc3c2)CC1`, the XC50 worked out at 156 nM.

In turn, `N=c1c(C(=O)NCc2ccccc2)cc2c(=O)n3ccccc3nc2n1CCc1ccccc1` registered an XC50 of 535 nM.

`Cc1cc(=NN=Cc2ccccc2F)c2cccc(C)c2[nH]1` registered an XC50 of 764 nM.

Turning to `Cc1cccc2nc(C(=O)Nc3nc(CN4CCC(C)CC4)cs3)cn12`, the XC50 came to 758 nM.

Compound `Cc1ccc(-c2nc3cc(NC(=O)c4ccc([N+](=O)[O-])o4)ccc3o2)cc1Cl` displayed an XC50 of 160 nM.

Turning to `CN(C)CCN(C)Cc1cccc(-c2ccc3c(Nc4ccc(F)cc4Cl)ccnc3c2)c1`, the XC50 came to 110 nM.

`O=C(NC1CCCCC1)c1ccc(O)c(-c2cccc(C(F)(F)F)c2)c1` yielded an XC50 of 712 nM.

The compound `COc1ccc2nccc([C@@H](O)CN3CCC(NC(=O)/C=C/c4cc(F)cc(Br)c4)CC3)c2c1` gave an XC50 of 172 nM.

Compound `CC(C)=C(C(=O)OCc1ccccc1)N1C(=O)[C@@H](NC(c2ccccc2)(c2ccccc2)c2ccccc2)[C@H]1[S+]([O-])CC(=O)OC(C)(C)C` (some centres undefined) displayed an XC50 of 1020 nM.

In turn, `CN(C)C(=O)n1cnc(S(=O)(=O)N(C)c2ccc(Cl)cc2)n1` returned an XC50 of 767 nM.

In turn, `CCc1ccc(C(=O)NC(=O)c2ccccc2O)cc1` had an XC50 of 610 nM.

For `O=C(NC1CC1)c1ccc(N2CCN(Cc3ccc(Cl)cc3)CC2)nc1`, the XC50 was 1340 nM.

On to `O=C(Nc1ccc2c(c1)OCO2)c1cc(-c2cccnc2)nc2ccc(Cl)cc12`, for which the XC50 worked out at 524 nM.

Consider `CN1CCCC1CCNCc1ccc(-c2ccc(CNCCc3ccccc3)cn2)cc1` (centres undefined), for which the XC50 was determined as 1110 nM.

`Cc1[nH]c(C)c(-c2ccc(CCc3ccc(F)cc3F)cc2)c(=O)c1Cl` came in with an XC50 of 15.9 nM.

On to `COc1cccc(C(=O)NCc2cccs2)c1Oc1ccccc1`, for which the XC50 came to 63.5 nM.

The compound `O=C(Nc1ccc(Cn2ncc(N3CCNCC3)c(Cl)c2=O)cc1)Nc1ccc(-c2ccccc2)cc1` displayed an XC50 of 591 nM.

The compound `N=C(N)CCN(Cc1ccccc1)c1ccc(Cl)cc1` registered an XC50 of 257 nM.

Regarding `CCCCCN1CCC(CNS(=O)(=O)c2ccc(C(=O)Nc3cccc(C(F)(F)F)c3)cc2)CC1`, the XC50 was 747 nM.

`C/C=C/C=C/C1=NCCc2cc(OCCC)ccc21` gave an XC50 of 914 nM.

Compound `CC(C)N1CCN(C(=O)c2ccc(CNCCCN3CCN(c4ccccc4C(F)(F)F)CC3)s2)CC1` had an XC50 of 837 nM.

Turning to `COc1ccc2ncc(F)c(CCN3CC(O)C(CNCc4ccc5c(n4)NC(=O)CS5)C3)c2c1` (centres undefined), the XC50 stood at 784 nM.

`O=C(NCc1ccccc1)C1Cc2c([nH]c3ccc(Br)cc23)C2(CCN(Cc3ccccc3)CC2)N1` (centres undefined) registered an XC50 of 873 nM.

In turn, `Oc1cc(Nc2ccnc3ccc(I)cc23)c(F)cc1Cl` returned an XC50 of 1230 nM.

On to `Cc1cc(OCCCn2ccnc2)ccc1-c1csc(/N=C(\N)NCc2ccccc2)n1`, for which the XC50 was 878 nM.

As for `O=C(Nc1cccc(-c2cccc(-c3nc4cc(F)ccc4[nH]3)c2)c1)c1ccncc1`, the XC50 came to 514 nM.

For `Nc1cccc(CNCc2ccc(-c3cccc(-c4nc5cc(C(F)(F)F)ccc5[nH]4)c3)cc2)c1`, the XC50 came to 172 nM.

In turn, `CCOC(=O)c1cc(=O)c2ccc(OCC#N)cc2o1` returned an XC50 of 1030 nM.

`COc1ccc(NC(=O)c2cc(NC(=O)C3(N)CC3)c(=O)n(Cc3ccc(C(N)=O)cc3)c2)cc1` had an XC50 of 792 nM.

The compound `CN(C)S(=O)(=O)c1ccc(N2C(=O)C3C(C2=O)C2(c4ccccc4)C(=O)C3(c3ccccc3)C(c3ccccc3)=C2c2ccccc2)cc1` (centres undefined) gave an XC50 of 951 nM.

With `CN1CCN(c2ccnc3ccc(NC(=O)Cc4cccc(Cl)c4Cl)cc23)CC1`, the XC50 amounted to 791 nM.

For the compound `CCOC(=O)C(C)(C)Oc1ccc(CN(Cc2ccc(CC(C)C)cc2)C(=O)Nc2ccc(F)cc2F)c(OC)c1`, the XC50 was found to be 238 nM.

For the compound `Cc1nn(-c2ccc(Cl)cc2)c2[nH]c(CN3CCN(c4cccc(Cl)c4)CC3)cc(=O)c12`, the XC50 was determined as 240 nM.

In turn, `O=C(Nc1ccc(C2=NC3CCCCC3N2)cc1)Nc1ccc(C2=NC3CCCCC3N2)cc1` (centres undefined) displayed an XC50 of 179 nM.

`Oc1ccccc1CNCC12CC3CC(CC(C3)C1)C2` registered an XC50 of 279 nM.

`CCCC(=O)c1cnc2c(Oc3cc(Cl)ncn3)cccc2c1Nc1ccccc1C` gave an XC50 of 336 nM.

As for `Cc1nn(-c2ccccc2)c2nc(-c3ccccc3)cc(C(=O)N3CCOCC3)c12`, the XC50 was 872 nM.

Consider `CCN(CC)CCN(Cc1ccc(-c2ccc(C(F)(F)F)cc2)cc1)C(=O)Cn1c(CCc2cccc(F)c2F)cc(=O)cc1-c1ccccc1`, for which the XC50 worked out at 778 nM.

In turn, `O=C(Nc1ccc(S(=O)(=O)N2CCOCC2)cc1)c1cc(-c2cc(Cl)ccc2O)n[nH]1` had an XC50 of 770 nM.

Compound `COc1ccc2nccc([C@@H](O)CN3CCC(NC(=O)c4ccc(Cl)c([N+](=O)[O-])c4)CC3)c2c1` displayed an XC50 of 954 nM.

Consider `O=C1C(c2ccccc2)=C(Nc2ccc(OC(F)(F)F)cc2)c2ccccc21`, for which the XC50 turned out to be 107 nM.

The compound `COc1ccc(Cn2ccc3c4c(N)nc(N)nc4ccc32)cc1` had an XC50 of 3.2 nM.

As for `COc1ccc(-c2ccc(NC(=O)c3ccc(C#N)cc3)cc2)cc1CN(C)CCO`, the XC50 was found to be 629 nM.

Values taken from ChEMBL document CHEMBL1157539, “Thousands of chemical starting points for antimalarial lead identification” (Nature, 2010).
